Measurements as given in patent publication US20230026271A1, “Piperazine Compounds for Inhibiting CPS1” (Eisai R&D Management Co., Ltd., priority 2019, published 2023).

Molecular target: T1, CPS1 (Homo sapiens, UniProt P31327)
T1 construct: The full length, human CPS1 gene was cloned into pFastBac HTA; His6 (from the pFastBac HTA vector); made in house; host or cells: SF21 insect cells (baculovirus, Bac-to-bac)
T1 sequence (P31327 39-1500): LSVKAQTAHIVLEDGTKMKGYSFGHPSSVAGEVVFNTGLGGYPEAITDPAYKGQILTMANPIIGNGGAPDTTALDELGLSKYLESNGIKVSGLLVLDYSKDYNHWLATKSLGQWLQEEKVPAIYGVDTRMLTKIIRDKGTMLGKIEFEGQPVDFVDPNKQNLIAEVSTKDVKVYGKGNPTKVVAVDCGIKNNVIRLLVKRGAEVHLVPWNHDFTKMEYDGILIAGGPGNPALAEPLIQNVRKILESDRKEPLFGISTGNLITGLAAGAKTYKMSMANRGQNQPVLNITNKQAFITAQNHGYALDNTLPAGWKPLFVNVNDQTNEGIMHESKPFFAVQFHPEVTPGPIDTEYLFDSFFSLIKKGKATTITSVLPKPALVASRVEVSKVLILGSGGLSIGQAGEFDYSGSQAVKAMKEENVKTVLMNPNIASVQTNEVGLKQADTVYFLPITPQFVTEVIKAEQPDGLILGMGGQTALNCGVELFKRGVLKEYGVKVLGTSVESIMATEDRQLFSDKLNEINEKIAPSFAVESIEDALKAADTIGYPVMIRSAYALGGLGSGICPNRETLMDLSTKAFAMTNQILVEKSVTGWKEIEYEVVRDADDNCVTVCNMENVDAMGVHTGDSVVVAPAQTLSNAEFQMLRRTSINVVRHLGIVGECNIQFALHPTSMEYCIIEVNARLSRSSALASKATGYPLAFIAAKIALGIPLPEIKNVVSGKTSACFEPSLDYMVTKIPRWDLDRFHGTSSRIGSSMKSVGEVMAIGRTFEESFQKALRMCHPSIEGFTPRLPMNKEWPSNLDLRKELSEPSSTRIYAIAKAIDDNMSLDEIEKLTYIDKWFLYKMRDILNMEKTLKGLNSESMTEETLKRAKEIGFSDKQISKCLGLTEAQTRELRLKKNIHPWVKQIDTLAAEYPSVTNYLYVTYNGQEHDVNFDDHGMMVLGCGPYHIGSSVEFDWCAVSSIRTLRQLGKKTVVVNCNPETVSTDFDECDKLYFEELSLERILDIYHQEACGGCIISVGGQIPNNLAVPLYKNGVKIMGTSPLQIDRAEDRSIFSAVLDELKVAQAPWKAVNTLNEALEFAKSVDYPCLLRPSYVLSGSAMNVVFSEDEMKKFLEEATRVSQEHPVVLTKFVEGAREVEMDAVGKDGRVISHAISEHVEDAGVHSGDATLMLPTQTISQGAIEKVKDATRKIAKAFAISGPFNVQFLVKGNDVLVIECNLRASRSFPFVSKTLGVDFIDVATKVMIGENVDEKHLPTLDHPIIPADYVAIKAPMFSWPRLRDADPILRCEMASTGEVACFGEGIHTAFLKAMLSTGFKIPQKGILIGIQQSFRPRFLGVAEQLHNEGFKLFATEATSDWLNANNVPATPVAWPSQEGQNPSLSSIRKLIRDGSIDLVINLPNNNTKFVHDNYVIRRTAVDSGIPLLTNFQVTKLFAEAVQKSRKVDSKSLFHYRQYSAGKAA
Assay: ADP-Glo endpoint assay measuring the ATPase activity of CPS1
Type: biochemical
Details: geometric mean of a minimum of two values; 50 nM CPS1, 10 μM ATP, 0.2 mM NAG, 60 min at room temperature; read-out: ADPGlo IC50
Experimental: CPS1 was expressed and purified from SF21 insect cells. The full length, human CPS1 gene was cloned into pFastBac HTA and baculovirus was generated using the Bac-to-bac expression system from Invitrogen. P3 virus was used to infect SF21 insect cells at a density of 1.5E6 cells/mL at an MOI of 2. Cells were harvested by centrifugation after 60 hrs and the cell pellet resuspended in lysis buffer (50 mM glycyl glycine pH 7.4, 20 mM KCl, 1 mM TCEP, 10% glycerol and 20 mM imidazole with Roche protease inhibitor tablet) before being lysed with 40 strokes of a Dounce homogenizer on ice. The insoluble fraction of the lysate was then cleared by centrifugation at 30,000 rpm for 30 min. 40 mL of supernatant was mixed with 2 mL of Ni NTA beads for 45 min at 4° C. in a 50 mL conical tube.
The beads were washed with 40 mL of wash buffer (50 mM glycyl glycine pH 7.4, 500 mM NaCl, 1 mM TCEP, 10% glycerol and 50 mM imidazole) by centrifugation and resuspension of the beads three times. Bound CPS1 protein was eluted in 6 mL of elution buffer (50 mM glycyl glycine pH 7.4, 500 mM NaCl, 1 mM TCEP, 10% glycerol and 250 mM imidazole) three times. Elution fractions were combined and concentrated using an Amicon Ultra centrifugation filter with a 10,000 molecular weight cut off. Imidazole was removed by repeated concentration and resuspension in storage buffer in the filter device (50 mM glycyl glycine pH 7.4, 500 mM NaCl, 1 mM TCEP and 20% glycerol). CPS1 was concentrated to a final concentration of ˜3 mg/mL before being aliquoted, flash frozen in liquid nitrogen and stored at −80° C.
CPS1 activity was measured and compounds profiled in an endpoint assay measuring the ATPase activity of CPS1 using the ADP-Glo kit from Promega. 50 nM CPS1 was incubated alone or with varying amounts of tested compound from DMSO stocks in assay buffer (50 mM HEPES pH 7.0, 12.5 mM KHCO3, 1.5 mM (NH4)2SO3, 5 mM MgCl2, 50 mM KCl, 1 mM TCEP, 0.01% TritonX 100, 0.0025% BSA and 0.2 mM NAG) for 20 min in a 3 μL volume in a 384-well plate (Corning Cat#3820). The final concentration of DMSO was 0.04%. The reaction was initiated by the addition of 10 μM ATP, bringing the final volume to 6 μL. After 60 min at room temperature, the reaction was terminated with 3 μL ADP-Glo reagent and incubated at room temperature for 30 min. 3 μL of kinase detection reagent was then added and luminescent signal measured on an Envision plate reader after 30 min.

| SMILES | IC50 [µM] |
| --- | --- |
| COc1ccc(C(=O)N2C[C@@H](C)N(C(=O)c3ccc(-n4cnnn4)cc3)[C@H](C)C2)c(F)c1 [Compound 41, ((3R,5R)-4-(4-(1H-Tetrazol-1-yl)benzoyl)-3,5-dimethylpiperazin-1-yl)(2-fluoro-4-methoxyphenyl)methanone] | 10.4 |
| COc1ccc(C(=O)N2C[C@@H](C)N(C(=O)c3ccc(CCO)cc3)[C@H](C)C2)c(F)c1 [Compound 42, ((2R,6R)-4-(2-Fluoro-4-methoxybenzoyl)-2,6-dimethylpiperazin-1-yl)(4-(2-hydroxyethyl)phenyl)methanone] | 10.7 |
| COc1ccc(C(=O)N2C[C@@H](C)N(C(=O)c3ccc4cc(C)[nH]c4c3)[C@H](C)C2)c(F)c1 [Compound 43, ((3R,5R)-3,5-Dimethyl-4-(2-methyl-1H-indole-6-carbonyl)piperazin-1-yl)(2-fluoro-4-methoxyphenyl)methanone] | 11.4 |
| COc1ccc(C(=O)N2CCN(C(=O)c3ccc(OC)cc3F)CC2)c(F)c1 [Compound 44, Piperazine-1,4-diylbis((2-fluoro-4-methoxyphenyl)methanone)] | 7.78 |
| COc1ccc(C(=O)N2CCN(C(=O)c3ccc(OC)cc3F)C(C)C2)c(F)c1 (stereo not shown) [Compound 45, (2-Methylpiperazine-1,4-diyl)bis((2-fluoro-4-methoxyphenyl)methanone)] | 5.21 |
| COc1ccc(C(=O)N2CCN(C(=O)c3ccc(OC)cc3F)[C@H](C)C2)c(F)c1 [Compound 46, (R)-(2-methylpiperazine-1,4-diyl)bis((2-fluoro-4-methoxyphenyl)methanone)] | 6.04 |
| COc1ccc(C(=O)N2C[C@H](C)N(C(=O)c3ccc(OC)cc3F)C[C@H]2C)c(F)c1 [Compound 47, ((2S,5R)-2,5-dimethylpiperazine-1,4-diyl)bis((2-fluoro-4-methoxyphenyl)methanone)] | 0.714 |
| COc1ccc(C(=O)N2CCN(C(=O)c3ccc(OC)cc3F)C(C)(C)C2)c(F)c1 [Compound 48, (2,2-Dimethylpiperazine-1,4-diyl)bis((2-fluoro-4-methoxyphenyl)methanone)] | 4.68 |
| COc1ccc(C(=O)N2C[C@H](C)N(C(=O)c3ccc(OC)cc3F)[C@@H](C)C2)c(F)c1 [Compound 49, ((2S,6S)-2,6-Dimethylpiperazine-1,4-diyl)bis((2-fluoro-4-methoxyphenyl)methanone)] | 6.56 |
| COc1ccc(C(=O)N2C[C@@H](C)N(C(=O)c3ccc(OC)cc3F)[C@@H](C)C2)c(F)c1 [Compound 50, ((2R,6S)-2,6-Dimethylpiperazine-1,4-diyl)bis((2-fluoro-4-methoxyphenyl)methanone)] | 6.98 |
| COc1ccc(C(=O)N2CCN(C(=O)c3ccc(OC)cc3F)[C@@H](C)C2)c(F)c1 [Compound 51, (S)-(2-Methylpiperazine-1,4-diyl)bis((2-fluoro-4-methoxyphenyl)methanone)] | 2.78 |
| COc1ccc(OC)c2[nH]c(C(=O)N3[C@H](C)CN(C(=O)c4ccc5cc[nH]c5c4)C[C@H]3C)cc12 [Compound 52, ((2R,6R)-4-(1H-indole-6-carbonyl)-2,6-dimethylpiperazin-1-yl)(4,7-dimethoxy-1H-indol-2-yl)methanone] | 0.193 |
| COc1ccc(OC)c2[nH]c(C(=O)N3C[C@@H](C)N(C(=O)c4ccc5cc[nH]c5c4)[C@H](C)C3)cc12 [Compound 53, ((3R,5R)-4-(1H-indole-6-carbonyl)-3,5-dimethylpiperazin-1-yl)(4,7-dimethoxy-1H-indol-2-yl)methanone] | 1.59 |
| COc1ccc(OC)c2[nH]c(C(=O)N3CCN(C(=O)c4ccc5cc[nH]c5c4)CC3)cc12 [Compound 54, (4-(1H-indole-6-carbonyl)piperazin-1-yl)(4,7-dimethoxy-1H-indol-2-yl)methanone] | 2.12 |
| COc1ccc(C(=O)N2C[C@@H](C)N(C(=O)c3cc4cc(O)ccc4[nH]3)[C@H](C)C2)c(F)c1 [Compound 55, ((2R,6R)-4-(2-fluoro-4-methoxybenzoyl)-2,6-dimethylpiperazin-1-yl)(5-hydroxy-1H-indol-2-yl)methanone] | 2.13 |
| COc1ccc(C(=O)N2[C@H](C)CN(C(=O)c3c[nH]c4c(C)cccc34)C[C@H]2C)c(F)c1 [Compound 56, ((2R,6R)-2,6-dimethyl-4-(7-methyl-1H-indole-3-carbonyl)piperazin-1-yl)(2-fluoro-4-methoxyphenyl)methanone] | 3.28 |
| COc1ccc(C(=O)N2C[C@@H](C)N(C(=O)c3cc4ccccc4[nH]3)[C@H](C)C2)c(F)c1 [Compound 57, ((3R,5R)-4-(1H-indole-2-carbonyl)-3,5-dimethylpiperazin-1-yl)(2-fluoro-4-methoxyphenyl)methanone] | 3.3 |
| COc1ccc(C(=O)N2[C@H](C)CN(C(=O)c3c[nH]c4c(F)cccc34)C[C@H]2C)c(F)c1 [Compound 58, (7-fluoro-1H-indol-3-yl)((3R,5R)-4-(2-fluoro-4-methoxybenzoyl)-3,5-dimethylpiperazin-1-yl)methanone] | 4.05 |
| COc1ccc(C(=O)N2[C@H](C)CN(C(=O)c3cc4ccccc4[nH]3)C[C@H]2C)c(F)c1 [Compound 59, ((2R,6R)-4-(1H-indole-2-carbonyl)-2,6-dimethylpiperazin-1-yl)(2-fluoro-4-methoxyphenyl)methanone] | 5.58 |
| COc1ccc(C(=O)N2[C@H](C)CN(C(=O)c3c[nH]c4ccc(Cl)cc34)C[C@H]2C)c(F)c1 [Compound 61, (5-chloro-1H-indol-3-yl)((3R,5R)-4-(2-fluoro-4-methoxybenzoyl)-3,5-dimethylpiperazin-1-yl)methanone] | 7.39 |
| COc1ccc(C(=O)N2[C@H](C)CN(c3ncnc4cc(OC)ccc34)C[C@H]2C)c(F)c1 [Compound 62, (2-fluoro-4-methoxyphenyl)((2R,6R)-4-(7-methoxyquinazolin-4-yl)-2,6-dimethylpiperazin-1-yl)methanone] | 10.5 |
| COc1ccc(C(=O)N2C[C@@H](C)N(C(=O)c3ccc(OC)cc3)[C@H](C)C2)cc1 [Compound 63, ((2R,6R)-2,6-dimethylpiperazine-1,4-diyl)bis((4-methoxyphenyl)methanone)] | 4.74 |
